Source: patent publication US20080071116A1, “Modulators of Lysophosphatidic Acid (Lpa) Signaling and the Use Thereof” (THE BOARD OF REGENTS OF THE UNIVERSITY OF TEXAS SYSTEM, priority 2004, published 2008)

Assays:
[1] = system: chimera receptor, LPA1/LPA2; experiment: calcium mobilization in Sf9 cells expressing LPA1/LPA2 chimera receptor; assay type: cell-based; conditions: FIG. 58C
[2] = biological target: T1, LPA2 receptor (Homo sapiens, UniProt Q9HBW0); experiment: HA-Erk1 phosphorylation in HEK 293 T cells transfected with LPA2; assay type: cell-based; parameters: expressed in transfected cells; conditions: LPA2 transfected HEK 293 T; 0.01, 0.1, or 1 μM
Text: (§1) We have also tested kinase activation by the LPA3 receptor subtype using OMPT as a tool. We determined whether activation of the LPA3 receptor by OMPT can be linked to ERK activation (related to MAP kinase signaling pathway) in mammalian cells, HEK 293 T cells, by co-transfecting hemagglutinin (HA)-tagged Erk1 (HA-Erk1) with either a control vector or an expression vector having LPA1, LPA2, or LPA3. […] There is no phosphorylation of HA-Erk1 at lower concentration of LPA or OMPT in the absence of LPA receptors. […] Thus, the data confirmed that OMPT, an LPA derivative, is a selective agonist for LPA3 receptor subtype, capable of inducing MAPK activation.

[3] = system: PC-3 cells; experiment: calcium mobilization assay in androgen insensitive prostate cancer PC-3 cells; assay type: cell-based, human; conditions: Homo sapiens
Description: The procedures for these calcium mobilization assays are as followed: OVCAR3 cells and PC-3 cells were cultured in RPMI 1640 medium with 10% FBS (fetal bovine serum). HT29 cells were cultured in DMEM (high glucose) medium with 10% FBS. All cells were cultured at about 37° C. in a humidified atmosphere with 5% CO2. After starvation in serum-free medium for about 12-24 hours, cells were harvested and loaded with about 1 μM of Indo-1 AM in serum-free medium for about 45 min at 37° C. Cells were washed in PBS and resuspended at 2×10^6 cells/ml in a [Ca^2+]i assay buffer (Sodium chloride, NaCl, about 140 mM, potassium chloride, KCl, about 2 mM, magnesium chloride, MgCl2, about 1 mM, calcium chloride, CaCl2, about 2 mM, in about 25 mM HEPES buffer at pH 7.4 with about 10 mM of glucose). Cytoplasmic [Ca^2+]i was determined at an excitation wavelength of about 331 nm and an emission wavelength of 410 nm using a fluorescence spectrophotometer (Hitachi, F-4000). Approximately 3×10^6 cells were used for [Ca^2+]l determination in a stirred quartz cuvette kept at about 37° C. OMPT or 18:1 LPA was dissolved in about 0.1% BSA/PBS solution and applied immediately to the cells. To test other LPA derivatives of the invention, cells were exposed to the derivatives for about 3 minutes or for a period of various times in time course related experiments before a LPA agonist, such as 18:1 LPA, OMPT, or other LPAs was applied into the cuvette.
The concentration of calcium mobilization giving the half-maximal response (EC50) was obtained from the concentration-response curve fitted to a sigmoidal logistic equation, with the maximal calcium response set to 100% using the GraphPad Prism. Maximal response value is expressed as mean +/−s.e.m. EC50 value is expressed with 95% confidence.

[4] = biological target: T2, LPA3 receptor (Homo sapiens, UniProt Q9UBY5); experiment: HA-Erk1 phosphorylation in HEK 293 T cells transfected with LPA3; assay type: cell-based; parameters: expressed in transfected cells; conditions: LPA3 transfected HEK 293 T; 0.01, 0.1, or 1 μM
T2 sequence (Q9UBY5 1-353): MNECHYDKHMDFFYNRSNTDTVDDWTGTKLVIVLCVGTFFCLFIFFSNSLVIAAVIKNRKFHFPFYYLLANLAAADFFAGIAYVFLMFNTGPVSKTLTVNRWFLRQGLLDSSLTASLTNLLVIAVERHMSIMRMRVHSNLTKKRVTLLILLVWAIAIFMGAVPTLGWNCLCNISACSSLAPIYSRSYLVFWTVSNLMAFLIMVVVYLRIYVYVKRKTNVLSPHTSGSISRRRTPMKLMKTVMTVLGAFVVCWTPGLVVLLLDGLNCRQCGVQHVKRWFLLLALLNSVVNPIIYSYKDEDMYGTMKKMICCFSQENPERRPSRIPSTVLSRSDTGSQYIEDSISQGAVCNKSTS
Text: as §1

[5] = biological target: T1, LPA2 receptor; experiment: GTP[γ-35S] binding assay, HEK293 T membranes, LPA2; assay type: biochemical; parameters: expressed in transfected cells; host or cells: HEK293 T cells (crude microsomal membranes); conditions: HEK293 transfected with LPA2, FIG. 59B
Description: (§2) OMPT also enhances GTP [γ-^35S] binding in the cell membrane of HEK293 T cells expressing LPA3. The procedures for these GTP [γ-^35S] binding assays involve co-transfection of HEK293 T cells with expression vectors encoding one of the receptors for LPA (LPA1, LPA2, or LPA3) or S1P (S1P3/Edg3) by calcium phosphate precipitation, together with plasmids encoding three G proteins (rat Gi2α, cow β1, and cow γ2). After about 48 hours, cells were harvested and crude microsomal membranes were prepared. Membranes containing about 5 μg of protein were incubated in 0.1 ml of GTP-binding buffer (50 mM Hepes, 100 mM NaCl, 10 mM MgCl2, pH7.5) having 5 μg of saponin, 0.1% fatty acid-free BSA, 10 μM GDP, 0.1 nM GTP[γ-^35S] (1200 Ci/mmole) together with indicated concentrations of LPA or OMPT for about 30 min at 30° C. Membranes were collected using a 96-well Brandel Cell Harvester (Gaithersburg, Md.), and bound radionuclide was determined using a Packard TopCount liquid scintillation counter.

[6] = system: vasodilator-stimulated protein (VASP); experiment: VASP phosphorylation in PC-3 cells; assay type: cell-based, human
Description: The cells were then lysed in SDA sample buffer or ice-cold X-100 lysis buffer (1% Triton X-100, 50 mM HEPES [pH7.4], 150 mM NaCl, 1.5 mM MgCl2, 1 mM EGTA, 10% glycerol, 100 mM NaF, 10 mM Na pyrophosphate, and 1 mM aprotinin). Total cellular protein was resolved by SDS/PAGE, transferred to immobilon [poly (vinylidene difluoride)], and immunoblotted with antibodies following the protocols provided by manufactures. Immunocomplexes were visualized with an enhanced chemiluminescence detection kit (Amersham Pharmacia) using horseradish peroxidase-conjugated secondary antibodies (Bio-Rad).
To determine the mechanisms regulating LPA-induced cell migration, actin filament binding proteins that link receptor signaling to lamellipodia formation were evaluated.

[7] = biological target: T2, LPA3 receptor; experiment: calcium mobilization in Sf9 insect cells expressing LPA3; assay type: cell-based; parameters: expressed in transfected cells; host or cells: Sf9 insect cells
[8] = biological target: LPA1 receptor (Homo sapiens, UniProt Q92633); experiment: GTP[γ-35S] binding assay, HEK293 T membranes, LPA1; assay type: biochemical; parameters: expressed in transfected cells; host or cells: HEK293 T cells (crude microsomal membranes); conditions: HEK293 transfected with LPA1, FIG. 59A
Description: as §2

T1 sequence (Q9HBW0 whole entry): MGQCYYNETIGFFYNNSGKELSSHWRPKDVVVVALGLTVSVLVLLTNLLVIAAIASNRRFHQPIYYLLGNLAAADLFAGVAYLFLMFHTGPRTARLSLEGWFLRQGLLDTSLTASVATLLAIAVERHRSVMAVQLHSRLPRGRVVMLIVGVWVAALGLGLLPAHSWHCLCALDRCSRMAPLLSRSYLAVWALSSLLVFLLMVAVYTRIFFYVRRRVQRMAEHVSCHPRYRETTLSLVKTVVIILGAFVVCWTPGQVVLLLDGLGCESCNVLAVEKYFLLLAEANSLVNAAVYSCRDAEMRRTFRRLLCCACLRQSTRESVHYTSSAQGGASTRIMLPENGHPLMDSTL
Chain of LPA1 receptor (Q92633 whole entry): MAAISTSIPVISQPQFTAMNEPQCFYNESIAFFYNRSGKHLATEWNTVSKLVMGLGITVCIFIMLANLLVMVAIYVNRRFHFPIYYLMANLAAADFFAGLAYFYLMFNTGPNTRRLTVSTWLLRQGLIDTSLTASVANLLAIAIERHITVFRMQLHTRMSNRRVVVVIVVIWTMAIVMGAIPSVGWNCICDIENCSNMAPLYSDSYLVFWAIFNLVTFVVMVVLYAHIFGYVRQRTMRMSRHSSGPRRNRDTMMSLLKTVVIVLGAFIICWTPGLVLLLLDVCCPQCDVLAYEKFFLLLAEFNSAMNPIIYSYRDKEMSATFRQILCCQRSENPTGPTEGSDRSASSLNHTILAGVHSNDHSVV

`CCCCCCCC/C=C\CCCCCCCC(=O)OCC(COP(O)(O)=S)OC` (racemic) [OMPT, 1-oleoyl-sn2-O-methyl-rac-glycero-3-phosphothionate] was tested, and the calcium mobilization [1] was “did not induce calcium mobilization”, the HA-Erk1 phosphorylation [2] was “did not increase HA-Erk1 phosphorylation” and the EC50 [3] was about 117 nM. The HA-Erk1 phosphorylation [4] was “stimulates Erk1 phosphorylation at all concentrations tested”, the “activation in GTP[γ-35S] binding assay” value [5] was “does not activate” and the “induction of VASP phosphorylation at Ser157 PKA site” value [6] was “Neither OMPT nor EGF increased phosphorylation of VASP”. For the same molecule, the calcium mobilization [7] was “efficiently activates calcium mobilization”, the EC50 ([7]; read-out: EC50 of increase in intracellular calcium concentration) was 69 nM and the “activation in GTP[γ-35S] binding assay” value [8] was “does not activate”.
